Laboratory results published in patent EP0100051A1, “New derivatives of 1-alkylamine-(4(p-alkyloxy-benzamide)phenoxy)-2-propanol, having beta-sympatholytic activity, their salts, and production processes thereof” (A. Menarini S.a.S., priority 1982, dated 1984).

Experiments:
[1] = tested on: β -chronotropic effects (cardiac frequency increase), β .-inotropic effects (systolic ejection velocity increase), and ,β2 effects (diastolic pressure lowering); assay: antagonism of the effects of isoprenaline in the anaesthetized and reserpenized rat after oral administration (in vivo); conditions: for power gap between vivo and vitro: in vivo activity relative to in vitro activity; for inherent sympathicomimetic activity: cardiac frequency in the reserpenized animal at rest; for cardioselectivity: from the in vivo and in vitro results, β1 versus β2 effects of isoprenaline
[2] = tested on: β chronotropic effects (cavy right atrium), β1 inotropic effects (cavy ventricle) and 2 effects (cavy trachea) of the isoprenaline; assay: antagonism of the effects of isoprenaline on isolated tissues (in vitro); conditions: compared with the compounds of the invention
Excerpt: The beta-sympatholytic activity of the compounds under examination has been tested in vivo as antagonist to the β -chronotropic effects (cardiac frequency increase), β .-inotropic effects (systolic ejection velocity increase), and ,β2 effects (diastolic pressure lowering) of the isoprenaline upon the anaesthetized and reserpenized rat, after oral administration, and in vitro as antagonist to the β chronotropic effects (cavy right atrium), β1 inotropic effects (cavy ventricle) and 2 effects (cavy trachea) of the isoprenaline.

Structure (SMILES)	power gap between vivo and vitro [1]	beta-sympatholytic activity in vitro [2]	inherent sympathicomimetic activity [1]	cardioselectivity [1]
CC(C)NCC(O)COc1cccc2ccccc12 (centres unmarked) [propranolol]	relevant decrease of the in vivo activity	more active in vitro		
CC(=O)Nc1ccc(OCC(O)CNC(C)C)cc1 (centres unmarked) [practolol]	lack of a significant power gap between vivo and vitro		also present	also present
CC(C)NCC(O)COc1ccc(NC(=O)c2ccc(Cl)cc2)cc1 (centres unmarked) [1 [4(-p--chlorobenzamide)phenoxy] -3-isopropylamine-2-propanol]	lack of a significant power gap between vivo and vitro		also present	also present
CC(C)NCC(O)COc1ccc(NC(=O)c2ccccc2)cc1 (centres unmarked) [1-(4-benzamidephenoxy)-3-isopropylamine-2-propanol]	lack of a significant power gap between vivo and vitro		also present	also present
